Where two headings read alike, the source gives them in different places.
Tests used:
[1] = biological target: T1, IRAK4 (Homo sapiens (Human), UniProt Q9NWZ3); experiment: IRAK4 Biochemical HTRF Kinase Assay; conditions: read-out: IRAK4 HTRF biochemical: IC50
Description: IRAK4 Biochemical HTRF Kinase Assay
The binding capacities of certain bifunctional compounds of Formula (I) were determined using the CisBio HTRF KinEASE STK S1 Kit (#62ST1PEB, contains 5× Kinase buffer, 1× Detection Buffer, anti-phospho-serine/threonine-cryptate, Streptavidin-XL665, and STK-S1), which measures the phosphorylation of a biotinylated peptide substrate by IRAK4, according to the manufacturer's protocol. […] 2 μl of a reaction solution containing 5 μM STK-S1, 10 mM ATP, and 10 mM MgCl2 were added to each well to a final volume of 10 μl. Assay controls include wells containing kinase with no compound (DMSO only) and wells containing no kinase and no compound (DMSO only). The reactions were allowed to proceed at ambient temperature for 90 minutes. […] The plates were incubated for 60 minutes at ambient temperature and then read on an Envision Multilabel Reader (PerkinElmer). […] For IC50 determination, the compounds were tested at sixteen concentrations in duplicate and curve-fitting was performed by non-linear regression analysis using GraphPad Priam.
Target sequence in this assay (Q9NWZ3 whole entry, species assumed): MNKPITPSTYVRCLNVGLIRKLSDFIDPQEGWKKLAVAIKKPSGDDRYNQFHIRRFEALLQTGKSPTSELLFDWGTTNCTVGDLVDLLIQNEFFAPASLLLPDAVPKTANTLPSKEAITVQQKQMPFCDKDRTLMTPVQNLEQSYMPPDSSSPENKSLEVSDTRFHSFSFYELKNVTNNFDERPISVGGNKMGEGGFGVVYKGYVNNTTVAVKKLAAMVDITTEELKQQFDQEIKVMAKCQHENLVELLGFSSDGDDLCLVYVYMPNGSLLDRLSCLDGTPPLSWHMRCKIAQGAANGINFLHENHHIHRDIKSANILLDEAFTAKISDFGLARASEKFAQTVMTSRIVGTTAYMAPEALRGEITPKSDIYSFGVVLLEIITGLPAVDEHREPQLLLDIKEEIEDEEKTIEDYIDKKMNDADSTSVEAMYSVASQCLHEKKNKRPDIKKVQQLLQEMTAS

[2] = biological target: T1, IRAK4; experiment: IRAK4 Degradation HiBiT Assay; conditions: HiBiT-tagged Jurkat cells, 4 hrs; for Dmax: Jurkat; for DC50: read-out: Cellular IRAK4 HiBiT: DC50
Target sequence in this assay (Q9NWZ3 whole entry): as the sequence (Q9NWZ3 whole entry, species assumed) above

[3] = read-out: Cellular IRAK4 HiBiT: Dmax, Table 5, multiple runs
[4] = read-out: Cellular IRAK4 HiBiT: Dmax, Table 4

Row | IC50 ([1]; Table 5, multiple runs) | Dmax [2, 3] | DC50 ([2]; Table 5, multiple runs) | IC50 ([1]; Table 4) | Dmax [2, 4] | DC50 ([2]; Table 4) | SMILES
1 | 2 nM | 45% | 43.8 nM |  |  |  | CNc1cc(-c2ccc3cc(C#N)cnn23)ncc1-c1nnc(C23CCC(NC(=O)CCCCCNc4cccc5c4C(=O)N(C4CCC(=O)NC4=O)C5=O)(CC2)CC3)s1 (centres unmarked) [Example 106, N-(4-(5-(6-(3-cyanopyrrolo[1,2-b]pyridazin-7-yl)-4-(methylamino)pyridin-3-yl)-1,3,4-thiadiazol-2-yl)bicyclo[2.2.2]octan-1-yl)-6-((2-(2,6-dioxopiperidin-3-yl)-1,3-dioxoisoindolin-4-yl)amino)hexanamide]
2 | 2.5 nM | 37% | 153 nM | 2.3 nM | 37% | 152 nM | CC(C)Nc1cc(-c2ccc3cc(C#N)cnn23)ncc1-c1nnc(N2CCN(CC3CCN(c4cccc5c4n(C)c(=O)n5C4CCC(=O)NC4=O)CC3)CC2)s1 (centres unmarked) [Example 32, 7-(5-(5-(4-((1-(1-(2,6-dioxopiperidin-3-yl)-3-methyl-2-oxo-2,3-dihydro-1H-benzo[d]imidazol-4-yl)piperidin-4-yl)methyl)piperazin-1-yl)-1,3,4-thiadiazol-2-yl)-4-(isopropylamino)pyridin-2-yl)pyrrolo[1,2-b]pyridazine-3-carbonitrile]
3 | 4.8 nM | 59% | 265 nM |  |  |  | CNc1cc(-c2ccc3cc(C#N)cnn23)ncc1-c1nnc(N2CCC(NC(=O)COc3cc(-c4scnc4C)ccc3CNC(=O)[C@@H]3C[C@@H](O)CN3C(=O)[C@@H](NC(=O)C3(F)CC3)C(C)(C)C)CC2)s1 [Example 97, (2S,4R)—N-(2-(2-((1-(5-(6-(3-cyanopyrrolo[1,2-b]pyridazin-7-yl)-4-(methylamino)pyridin-3-yl)-1,3,4-thiadiazol-2-yl)piperidin-4-yl)amino)-2-oxoethoxy)-4-(4-methylthiazol-5-yl)benzyl)-1-((S)-2-(1-fluorocyclopropane-1-carboxamido)-3,3-dimethylbutanoyl)-4-hydroxypyrrolidine-2-carboxamide]
4 | 1.6 nM | 54% | 11.2 nM |  |  |  | CNc1cc(-c2ccc3cc(C#N)cnn23)ncc1-c1nnc([C@H]2CC[C@H](NC(=O)CCCCCNc3cccc4c3C(=O)N(C3CCC(=O)NC3=O)C4=O)CC2)s1 (some centres unmarked) [Example 66, N-((1r,4r)-4-(5-(6-(3-cyanopyrrolo[1,2-b]pyridazin-7-yl)-4-(methylamino)pyridin-3-yl)-1,3,4-thiadiazol-2-yl)cyclohexyl)-6-((2-(2,6-dioxopiperidin-3-yl)-1,3-dioxoisoindolin-4-yl)amino)hexanamide]
5 | 0.9 nM |  | > 6980 nM |  |  |  | CNc1cc(-c2ccc3cc(C#N)cnn23)ncc1-c1nnc([C@H]2CC[C@H](NC(=O)CCC(=O)N[C@H](C(=O)N3C[C@@H](O)C[C@H]3C(=O)NCc3ccc(-c4scnc4C)cc3)C(C)(C)C)CC2)s1 [Example 151, N1-((1r,4S)-4-(5-(6-(3-cyanopyrrolo[1,2-b]pyridazin-7-yl)-4-(methylamino)pyridin-3-yl)-1,3,4-thiadiazol-2-yl)cyclohexyl)-N4—((S)-1-((2S,4S)-4-hydroxy-2-((4-(4-methylthiazol-5-yl)benzyl)carbamoyl)pyrrolidin-1-yl)-3,3-dimethyl-1-oxobutan-2-yl)succinamide]
6 | 0.8 nM | 112% | 14.9 nM | 0.89 nM | 110% | 17.3 nM | CNc1cc(-c2ccc3cc(C#N)cnn23)ncc1-c1nnc([C@H]2CC[C@H](NC(=O)CN3CCC4(CC3)CN(c3ccc5c(c3)C(=O)N(C3CCC(=O)NC3=O)C5=O)C4)CC2)s1 (some centres unmarked) [Example 64, N-((1r,4r)-4-(5-(6-(3-cyanopyrrolo[1,2-b]pyridazin-7-yl)-4-(methylamino)pyridin-3-yl)-1,3,4-thiadiazol-2-yl)cyclohexyl)-2-(2-(2-(2,6-dioxopiperidin-3-yl)-1,3-dioxoisoindolin-5-yl)-2,7-diazaspiro[3.5]nonan-7-yl)acetamide]
7 | 0.8 nM | 101% | 14.3 nM | 1.79 nM | 82% | 47.5 nM | CNc1cc(-c2ccc3cc(C#N)cnn23)ncc1-c1nnc([C@H]2CC[C@H](NC(=O)CCCCCNc3ccc4c(c3)C(=O)N(C3CCC(=O)NC3=O)C4=O)CC2)s1 (some centres unmarked) [Example 68, N-((1r,4r)-4-(5-(6-(3-cyanopyrrolo[1,2-b]pyridazin-7-yl)-4-(methylamino)pyridin-3-yl)-1,3,4-thiadiazol-2-yl)cyclohexyl)-6-((2-(2,6-dioxopiperidin-3-yl)-1,3-dioxoisoindolin-5-yl)amino)hexanamide]
8 | 2.9 nM | 125% | 217 nM | 2.9 nM | 125% | 218 nM | CC(C)Nc1cc(-c2ccc3cc(C#N)cnn23)ncc1-c1nnc(N2CCN(C(=O)CCCCCNc3cccc4c3C(=O)N(C3CCC(=O)NC3=O)C4=O)CC2)s1 (centres unmarked) [Example 9, 7-(5-(5-(4-(6-((2-(2,6-dioxopiperidin-3-yl)-1,3-dioxoisoindolin-4-yl)amino)hexanoyl)piperazin-1-yl)-1,3,4-thiadiazol-2-yl)-4-(isopropylamino)pyridin-2-yl)pyrrolo[1,2-b]pyridazine-3-carbonitrile]
9 | 2.3 nM | 111% | 222 nM |  |  |  | CNc1cc(-c2ccc3cc(C#N)cnn23)ncc1-c1nnc([C@H]2C[C@H](NC(=O)C[C@H](NC(=O)[C@@H]3C[C@@H](O)CN3C(=O)[C@@H](NC(=O)C3(F)CC3)C(C)(C)C)c3ccc(-c4scnc4C)cc3)C2)s1 [Example 183, (2S,4R)—N—((S)-3-(((1r,3S)-3-(5-(6-(3-cyanopyrrolo[1,2-b]pyridazin-7-yl)-4-(methylamino)pyridin-3-yl)-1,3,4-thiadiazol-2-yl)cyclobutyl)amino)-1-(4-(4-methylthiazol-5-yl)phenyl)-3-oxopropyl)-1-((S)-2-(1-fluorocyclopropane-1-carboxamido)-3,3-dimethylbutanoyl)-4-hydroxypyrrolidine-2-carboxamide]
10 | 0.9 nM | 103% | 64.1 nM |  |  |  | CNc1cc(-c2ccc3cc(C#N)cnn23)ncc1-c1nnc(C23CCC(NC(=O)C4CCN(c5ccc6c(c5)C(=O)N(C5CCC(=O)NC5=O)C6=O)CC4)(CC2)CC3)s1 (centres unmarked) [Example 134, N-(4-(5-(6-(3-cyanopyrrolo[1,2-b]pyridazin-7-yl)-4-(methylamino)pyridin-3-yl)-1,3,4-thiadiazol-2-yl)bicyclo[2.2.2]octan-1-yl)-1-(2-(2,6-dioxopiperidin-3-yl)-1,3-dioxoisoindolin-5-yl)piperidine-4-carboxamide]
11 | 1.7 nM | 116% | 166 nM |  |  |  | CNc1cc(-c2ccc3cc(C#N)cnn23)ncc1-c1nnc(C2CCC(NC(=O)Cn3ccc(C(=O)N[C@H](C(=O)N4C[C@H](O)C[C@H]4C(=O)N[C@@H](C)c4ccc(-c5scnc5C)cc4)C(C)(C)C)n3)CC2)s1 (stereo partly drawn) [Example 125, 1-(2-(((1r,4S)-4-(5-(6-(3-cyanopyrrolo[1,2-b]pyridazin-7-yl)-4-(methylamino)pyridin-3-yl)-1,3,4-thiadiazol-2-yl)cyclohexyl)amino)-2-oxoethyl)-N—((S)-1-((2S,4R)-4-hydroxy-2-(((S)-1-(4-(4-methylthiazol-5-yl)phenyl)ethyl)carbamoyl)pyrrolidin-1-yl)-3,3-dimethyl-1-oxobutan-2-yl)-1H-pyrazole-3-carboxamide]
12 | 24 nM | 67% | 1090 nM | 24.1 nM | 78% | 1170 nM | Cc1ncsc1-c1ccc(CNC(=O)[C@@H]2C[C@@H](O)CN2C(=O)[C@@H](NC(=O)C2(F)CC2)C(C)(C)C)c(OCCCCCCCC(=O)N2CCN(c3nnc(-c4cnc(-c5ccc6cc(C#N)cnn56)cc4NC(C)C)s3)CC2)c1 [Example 43, (2S,4R)—N-(2-((8-(4-(5-(6-(3-cyanopyrrolo[1,2-b]pyridazin-7-yl)-4-(isopropylamino)pyridin-3-yl)-1,3,4-thiadiazol-2-yl)piperazin-1-yl)-8-oxooctyl)oxy)-4-(4-methylthiazol-5-yl)benzyl)-1-((S)-2-(1-fluorocyclopropane-1-carboxamido)-3,3-dimethylbutanoyl)-4-hydroxypyrrolidine-2-carboxamide]
13 | 13.4 nM | 85% | 287 nM | 13.4 nM | 84% | 315 nM | Cc1ncsc1-c1ccc([C@H](C)NC(=O)[C@@H]2C[C@@H](O)CN2C(=O)[C@@H](NC(=O)CCCCCCCC(=O)N2CCN(c3nnc(-c4cnc(-c5ccc6cc(C#N)cnn56)cc4NC(C)C)s3)CC2)C(C)(C)C)cc1 [Example 36, (2S,4R)-1-((S)-2-(9-(4-(5-(6-(3-cyanopyrrolo[1,2-b]pyridazin-7-yl)-4-(isopropylamino)pyridin-3-yl)-1,3,4-thiadiazol-2-yl)piperazin-1-yl)-9-oxononanamido)-3,3-dimethylbutanoyl)-4-hydroxy-N—((S)-1-(4-(4-methylthiazol-5-yl)phenyl)ethyl)pyrrolidine-2-carboxamide]
